Experimental data from patent US20200190067A1, “PHOTO-SWITCHABLE CHEMICAL INDUCERS OF DIMERIZATION FOR CONTROL OF PROTEIN FUNCTION IN CELLS BY LIGHT” (Max-Planck-Gesellschaft zur Förderung der Wissenschaften …, priority 2017, published 2020).

Assay: UV-Vis absorption spectra
Format: physicochemical
Conditions: 50 μM dimerizer in PBS buffer (pH 7.4, 0.5% DMSO)
Description: FIG. 1: UV-Vis absorption spectra of TMP—PC—Cl (black) and 4-CmTMP—PC—Cl (red). A solution of 50 μM of the respective dimerizer in PBS buffer (pH 7.4, 0.5% DMSO) was subjected to UV-Vis absorption analysis (FIG. 1). 0.5% DMSO in PBS was used as the blank.
UV-Vis absorption spectra were recorded using SHIMADZU UV-2401PC UV-Vis Recording Spectrophotometer. A solution of 50 μM of the respective dimerizer in PBS buffer (pH 7.4, 0.5% DMSO) was subjected to UV-Vis absorption analysis (FIG. 1). 0.5% DMSO in PBS was used as the blank.

For `COc1cc(COC(=O)NCCCOCCOCCOCCCNC(=O)COc2c(OC)cc(Cc3cnc(N)nc3N)cc2OC)c([N+](=O)[O-])cc1OCCOCCOCCOCCOCCOCCCCCCCl` [TMP—PC—Cl, 4-((21-Chloro-3,6,9,12,15-pentaoxahenicosyl)oxy)-5-methoxy-2-nitrobenzyl (1-(4-((2,4-diaminopyrimidin-5-yl)methyl)-2,6-dimethoxyphenoxy)-2-oxo-7,10,13-trioxa-3-azahexadecan-16-yl)carbamate], which absorption peak is on record?
The absorption peak was 348.5 nm.
